From ChEMBL document CHEMBL5620423, “Highly-tumor-targeted PAD4 inhibitors with PBA modification inhibit tumors in vivo by specifically inhibiting the PAD4-H3cit-NETs pathway in neutrophils” (Eur J Med Chem, 2023)

Tests used:
[1] = test system: 4T1; assay: Cytotoxicity against mouse 4T1 cells assessed as reduction in cell viability measured after 48 hrs by MTT assay; details: 4T1, 48 h
[2] = test system: Sarcoma-180; assay: Antitumor activity against Sarcoma-180 mouse model assessed as inhibition of tumor growth at 10 umol/kg; format: functional
[3] = test system: Sarcoma-180; assay: Antitumor activity against Sarcoma-180 mouse model assessed as tumor weight at 10 umol/kg (reference value: 1.65 +/-0.2 gms); format: functional; details: dose 10 µmol/kg

N=C(CCl)NCCC[C@H](NC(=O)c1ccccc1B(O)O)C(=O)NCc1ccccc1
IC50 [1]: > 100 µM
inhibition in vivo at 10 µmol/kg [2]: 39.2%
Activity [3]: 1 g

N=C(CCl)NCCC[C@H](NC(=O)c1ccc(F)c(B(O)O)c1)C(=O)NCc1ccccc1
IC50 [1]: > 100 µM
inhibition in vivo at 10 µmol/kg [2]: 37.5%
Activity [3]: 1.03 g

N=C(CCl)NCCC[C@H](NC(=O)c1cc([N+](=O)[O-])c2nonc2c1)C(=O)NCc1ccc(B(O)O)cc1
IC50 [1]: > 100 µM
inhibition in vivo at 10 µmol/kg [2]: 47.4%
Activity [3]: 0.87 g
